IC50 and viability, T/C data for five compounds are collected here from PubChem BioAssay AID1963447 (Molecular Pharmacology Branch, DTP, NCI, 2024).

SMILES strings stand for the structures. pIC50: −log10 of the molar value. Values joined by “and” are separate entries in the source; they are usually repeats but may differ in a detail not shown here. Equal values may be shown once. Where only a bound is given, the exact number is not on record here.

For the assay, the system named is 885512-296-R-J2-PDC complex spheroid growth, % test/control. The experiment in a line: Anticancer human tumor 885512-296-R-J2-PDC patient-derived breast carcinoma cell line growth inhibition [Asc]. As to conditions: for viability, T/C: stronger effect = lower value. In outline:
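Tumor cells were grown as multicellular spheroids with stromal HUVEC and mesenchymal stem cells and treated singly or in combination. Concentrations fell in half-log steps from the clinical Cmax, or from 10 microM where none was known.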

[1] abbreviates: curve of first compound, second compound 0.1 µM.
Setting [2] is: curve of first compound, second compound 0.316 µM.
Where [3] appears, read: curve of first compound, second compound 1 µM.
[4] abbreviates: curve of first compound, second compound 3.16 µM.
Where [5] appears, read: curve of first compound, second compound 10 µM.
[6] abbreviates: second compound 0.1 µM, first compound 0.00316 µM.
[7] abbreviates: second compound 0.1 µM, first compound 0.01 µM.
The mark [8] stands for this setting: second compound 0.1 µM, first compound 0.0316 µM.
Where [9] appears, read: second compound 0.1 µM, first compound 0.1 µM.
Setting [10] is: second compound 0.316 µM, first compound 0.00316 µM.
Setting [11] is: second compound 0.316 µM, first compound 0.01 µM.
Where [12] appears, read: second compound 0.316 µM, first compound 0.0316 µM.
Where [13] appears, read: second compound 0.316 µM, first compound 0.1 µM.
Where [14] appears, read: second compound 1 µM, first compound 0.00316 µM.
[15] abbreviates: second compound 1 µM, first compound 0.01 µM.
Where [16] appears, read: second compound 1 µM, first compound 0.0316 µM.
Where [17] appears, read: second compound 1 µM, first compound 0.1 µM.
The mark [18] stands for this setting: second compound 3.16 µM, first compound 0.00316 µM.
The mark [19] stands for this setting: second compound 3.16 µM, first compound 0.01 µM.
The mark [20] stands for this setting: second compound 3.16 µM, first compound 0.0316 µM.
[21] abbreviates: second compound 3.16 µM, first compound 0.1 µM.
[22] abbreviates: second compound 10 µM, first compound 0.00316 µM.
[23] abbreviates: second compound 10 µM, first compound 0.01 µM.
[24] abbreviates: second compound 10 µM, first compound 0.0316 µM.
Setting [25] is: second compound 10 µM, first compound 0.1 µM.
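Also: spheroids exposed to compounds for seven days.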
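For viability, T/C in this document: 100% = DMSO vehicle control wells.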

As to `CCN1CCN(Cc2ccc(Nc3ncc(F)c(-c4cc(F)c5nc(C)n(C(C)C)c5c4)n3)nc2)CC1` + Cc1c(S(C)(=O)=O)c(-c2cc(F)cc(N3CCN(c4ccc(NS(=O)(=O)c5ccc(NC(CCN6CCC(C(=O)OCCCP(=O)(O)O)CC6)CSc6ccccc6)c(S(=O)(=O)C(F)(F)F)c5)cc4)CC3)c2)c(-c2ccc(Cl)cc2)n1C(C)C, the pIC50 reads like this: under setting [1], below 6.00; under setting [2], below 6.00; under setting [3], below 6.00; under setting [4], below 6.00; under setting [5], below 6.00. In addition, the viability, T/C by setting is: under setting [6], 85.9%; under setting [7], 104%; under setting [8], 89.3%; under setting [9], 71.7%; (second compound 0.1 µM, first compound 0.316 µM) 65.5%; (second compound 0.1 µM, first compound 1 µM) 61%. In addition, the viability, T/C under setting [10] is 102%; the viability, T/C under setting [11] is 89.9%; the viability, T/C under setting [12] was 83.3%; the viability, T/C under setting [13] was 68.3%; the viability, T/C (second compound 0.316 µM, first compound 0.316 µM) is 66.1%; the viability, T/C (second compound 0.316 µM, first compound 1 µM) is 65%. Besides, the viability, T/C is, setting by setting: under setting [14], 92.6%; under setting [15], 91.5%; under setting [16], 76%; under setting [17], 76.3%; (second compound 1 µM, first compound 0.316 µM) 67.8%; (second compound 1 µM, first compound 1 µM) 69.1%. In addition, the viability, T/C was 90.8% under setting [18]; 83.5% under setting [19]; 92.6% under setting [20]; 89% under setting [21]; 72.5% (second compound 3.16 µM, first compound 0.316 µM); 61.9% (second compound 3.16 µM, first compound 1 µM). Further, the viability, T/C is, setting by setting: under setting [22], 118%; under setting [23], 116%; under setting [24], 108%; under setting [25], 126%; (second compound 10 µM, first compound 0.316 µM) 125%; (second compound 10 µM, first compound 1 µM) 113%.

Regarding `NC(=O)C(=Cn1cnc(-c2cc(C(F)(F)F)cc(C(F)(F)F)c2)n1)c1cncnc1` + Cc1c(S(C)(=O)=O)c(-c2cc(F)cc(N3CCN(c4ccc(NS(=O)(=O)c5ccc(NC(CCN6CCC(C(=O)OCCCP(=O)(O)O)CC6)CSc6ccccc6)c(S(=O)(=O)C(F)(F)F)c5)cc4)CC3)c2)c(-c2ccc(Cl)cc2)n1C(C)C, the pIC50 is, setting by setting: under setting [1], 7.40; under setting [2], 7.41; under setting [3], 7.41; under setting [4], 7.38; under setting [5], 7.34. Further, the viability, T/C was 92.8% (second compound 0.1 µM, first compound 0.000949 µM); 74.5% (second compound 0.1 µM, first compound 0.003 µM); 81.9% (second compound 0.1 µM, first compound 0.00949 µM); 65.5% (second compound 0.1 µM, first compound 0.03 µM); 4.49% (second compound 0.1 µM, first compound 0.0949 µM); 0.26% (second compound 0.1 µM, first compound 0.3 µM). Also, the viability, T/C is 75.8% (second compound 0.316 µM, first compound 0.000949 µM); 102% (second compound 0.316 µM, first compound 0.003 µM); 83% (second compound 0.316 µM, first compound 0.00949 µM); 63.3% (second compound 0.316 µM, first compound 0.03 µM); 4.42% (second compound 0.316 µM, first compound 0.0949 µM); 3.46% (second compound 0.316 µM, first compound 0.3 µM). Also, the viability, T/C was 68.8% (second compound 1 µM, first compound 0.000949 µM); 89.2% (second compound 1 µM, first compound 0.003 µM); 102% (second compound 1 µM, first compound 0.00949 µM); 64.4% (second compound 1 µM, first compound 0.03 µM); 3.77% (second compound 1 µM, first compound 0.0949 µM); 0.23% (second compound 1 µM, first compound 0.3 µM). Moreover, the viability, T/C (second compound 3.16 µM, first compound 0.000949 µM) is 92.9%; the viability, T/C (second compound 3.16 µM, first compound 0.003 µM) was 88.1%; the viability, T/C (second compound 3.16 µM, first compound 0.00949 µM) was 105%; the viability, T/C (second compound 3.16 µM, first compound 0.03 µM) was 67.9%; the viability, T/C (second compound 3.16 µM, first compound 0.0949 µM) was 4.78%; the viability, T/C (second compound 3.16 µM, first compound 0.3 µM) was 0.2%. Moreover, the viability, T/C is, setting by setting: (second compound 10 µM, first compound 0.000949 µM) 117%; (second compound 10 µM, first compound 0.003 µM) 105%; (second compound 10 µM, first compound 0.00949 µM) 89.7%; (second compound 10 µM, first compound 0.03 µM) 78%; (second compound 10 µM, first compound 0.0949 µM) 2.71%; (second compound 10 µM, first compound 0.3 µM) 0.25%.

`Cn1ncnc1[C@H]1c2n[nH]c(=O)c3cc(F)cc(c23)N[C@@H]1c1ccc(F)cc1` + Cc1c(S(C)(=O)=O)c(-c2cc(F)cc(N3CCN(c4ccc(NS(=O)(=O)c5ccc(NC(CCN6CCC(C(=O)OCCCP(=O)(O)O)CC6)CSc6ccccc6)c(S(=O)(=O)C(F)(F)F)c5)cc4)CC3)c2)c(-c2ccc(Cl)cc2)n1C(C)C: the pIC50 was 7.76 under setting [1]; 7.58 under setting [2]; 7.76 under setting [3]; 7.67 under setting [4]; 7.54 under setting [5]. The viability, T/C runs as follows: (second compound 0.1 µM, first compound 0.000316 µM) 85.5%; (second compound 0.1 µM, first compound 0.001 µM) 78.4%; under setting [6], 66.3%; under setting [7], 53.1%; under setting [8], 47.5%; under setting [9], 29.1%. Moreover, the viability, T/C was 105% (second compound 0.316 µM, first compound 0.000316 µM); 77.6% (second compound 0.316 µM, first compound 0.001 µM); 85.9% under setting [10]; 58.5% under setting [11]; 54.2% under setting [12]; 26.6% under setting [13]. Moreover, the viability, T/C runs as follows: (second compound 1 µM, first compound 0.000316 µM) 87.1%; (second compound 1 µM, first compound 0.001 µM) 91.1%; under setting [14], 78.4%; under setting [15], 55.3%; under setting [16], 44.1%; under setting [17], 27.9%. The viability, T/C by setting is: (second compound 3.16 µM, first compound 0.000316 µM) 88%; (second compound 3.16 µM, first compound 0.001 µM) 77.1%; under setting [18], 77.8%; under setting [19], 66.2%; under setting [20], 41.5%; under setting [21], 27.9%. Further, the viability, T/C reads like this: (second compound 10 µM, first compound 0.000316 µM) 120%; (second compound 10 µM, first compound 0.001 µM) 97.9%; under setting [22], 82.8%; under setting [23], 73%; under setting [24], 47.2%; under setting [25], 27.9%.

For `NC(=O)C(=Cn1cnc(-c2cc(C(F)(F)F)cc(C(F)(F)F)c2)n1)c1cncnc1`, the viability, T/C was 87.5% and 102% and 84.6% (compound 0.000949 µM); 85.7% and 110% and 93.3% (compound 0.003 µM); 101% and 108% and 96.6% (compound 0.00949 µM); 74.1% and 79.4% and 91.7% (compound 0.03 µM); 8.08% and 8.06% and 10.7% (compound 0.0949 µM); 3% and 0.88% and 1.21% (compound 0.3 µM). Besides, where the note is “curve of compound”, the pIC50 was 7.34 and 7.32 and 7.27.

As for `CCN1CCN(Cc2ccc(Nc3ncc(F)c(-c4cc(F)c5nc(C)n(C(C)C)c5c4)n3)nc2)CC1`, the viability, T/C is 89.4% and 83.8% and 88.3% (compound 0.00316 µM); 107% and 91.6% and 85.9% (compound 0.01 µM); 92.8% and 77.8% and 104% (compound 0.0316 µM); 80.7% and 77.2% and 93% (compound 0.1 µM); 79.6% and 71.2% and 79.3% (compound 0.316 µM); 61.1% and 65% and 73.3% (compound 1 µM). Besides, under “curve of compound”, the pIC50 was below 6.00.
